tested on: S. aureus DSM 20231; experiment: Bliss interaction score (quartile over a dose matrix) (fitness difference); higher = more antagonism (negative = synergy); conditions: not given
In short: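 Values were capped at 1 after dividing OD595 at stationary-phase entry by the plate's robust no-drug mean. This ratio is fitness, and single-drug fitness was inferred from the combination data. The Bliss score is observed minus product-expected fitness, given as quartiles over technical, biological and donor/recipient replicates.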
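Further: first quartile when negative (synergy) and third quartile when positive (antagonism).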

| Compound | Bliss interaction score |
| --- | --- |
| CO[C@@]12[C@H](COC(N)=O)C3=C(C(=O)C(C)=C(N)C3=O)N1C[C@@H]1N[C@@H]12 [MitomycinC] + COc1ccc(CCN(C)CCCC(C#N)(c2ccc(OC)c(OC)c2)C(C)C)cc1OC [Verapamil] | 0.195 |
| CO[C@@]12[C@H](COC(N)=O)C3=C(C(=O)C(C)=C(N)C3=O)N1C[C@@H]1N[C@@H]12 [MitomycinC] + Cc1c(Cl)cccc1Nc1ccccc1C(=O)O [Tolfenamic] | -0.273 |
| CC(C)(O)c1ccccc1CC[C@@H](SCC1(CC(=O)O)CC1)c1cccc(/C=C/c2ccc3ccc(Cl)cc3n2)c1 [Montelukast] + CN[C@@H]1[C@H](O[C@H]2[C@H](O[C@H]3[C@H](O)[C@@H](O)[C@H](N=C(N)N)[C@@H](O)[C@@H]3N=C(N)N)O[C@@H](C)[C@]2(O)C=O)O[C@@H](CO)[C@H](O)[C@H]1O [Streptomycin] | -0.394 |
| CC(C)(O)c1ccccc1CC[C@@H](SCC1(CC(=O)O)CC1)c1cccc(/C=C/c2ccc3ccc(Cl)cc3n2)c1 [Montelukast] + CN[C@H](CC(C)C)C(=O)N[C@H]1C(=O)N[C@@H](CC(N)=O)C(=O)N[C@H]2C(=O)N[C@H]3C(=O)N[C@H](C(=O)N[C@H](C(=O)O)c4cc(O)cc(O)c4-c4cc3ccc4O)[C@H](O[C@H]3C[C@](C)(N)[C@@H](O)[C@H](C)O3)c3ccc(c(Cl)c3)Oc3cc2cc(c3O[C@@H]2O[C@H](CO)[C@@H](O)[C@H](O)[C@H]2O[C@H]2C[C@](C)(NCc3ccc(-c4ccc(Cl)cc4)cc3)[C@@H](O)[C@H](C)O2)Oc2ccc(cc2Cl)[C@H]1O [Oritavancin] | 0.247 |
| CC(C)(O)c1ccccc1CC[C@@H](SCC1(CC(=O)O)CC1)c1cccc(/C=C/c2ccc3ccc(Cl)cc3n2)c1 [Montelukast] + COc1cc(Cc2cnc(N)nc2N)cc(OC)c1OC [Trimethoprim] | -0.299 |
| CC(C)(O)c1ccccc1CC[C@@H](SCC1(CC(=O)O)CC1)c1cccc(/C=C/c2ccc3ccc(Cl)cc3n2)c1 [Montelukast] + Cn1nnc(-c2ccc(-c3ccc(N4C[C@H](CO)OC4=O)cc3F)cn2)n1 [Tedizolid] | -0.384 |
| CO[C@@H]1[C@@H](OC(N)=O)[C@@H](O)[C@H](Oc2ccc3c(O)c(NC(=O)c4ccc(O)c(CC=C(C)C)c4)c(=O)oc3c2C)OC1(C)C [Novobiocin] + CCCSc1nc(N[C@@H]2C[C@H]2c2ccc(F)c(F)c2)c2nnn([C@@H]3C[C@H](OCCO)[C@@H](O)[C@H]3O)c2n1 [Ticagrelor] | 0.177 |
| CO[C@H]1/C=C/O[C@@]2(C)Oc3c(C)c(O)c4c(O)c(c(/C=N/N5CCN(C)CC5)c(O)c4c3C2=O)NC(=O)/C(C)=C\C=C\[C@H](C)[C@H](O)[C@@H](C)[C@@H](O)[C@@H](C)[C@H](OC(C)=O)[C@@H]1C [Rifampicin] + CCCSc1nc(N[C@@H]2C[C@H]2c2ccc(F)c(F)c2)c2nnn([C@@H]3C[C@H](OCCO)[C@@H](O)[C@H]3O)c2n1 [Ticagrelor] | 0.245 |
| CN[C@@H]1[C@H](O)[C@H](NC)[C@H]2O[C@@]3(O)C(=O)C[C@@H](C)O[C@H]3O[C@@H]2[C@H]1O [Spectinomycin] + Cc1c(Cl)cccc1Nc1ccccc1C(=O)O [Tolfenamic] | 0.145 |
| CN[C@@H]1[C@H](O[C@H]2[C@H](O[C@H]3[C@H](O)[C@@H](O)[C@H](N=C(N)N)[C@@H](O)[C@@H]3N=C(N)N)O[C@@H](C)[C@]2(O)C=O)O[C@@H](CO)[C@H](O)[C@H]1O [Streptomycin] + CC/C(=C(\c1ccccc1)c1ccc(OCCN(C)C)cc1)c1ccccc1 [Tamoxifene] | 0.166 |

same assay, conditions: main component drawn

| Compound | Bliss interaction score |
| --- | --- |
| CC(C)(O)c1ccccc1CC[C@@H](SCC1(CC(=O)O)CC1)c1cccc(/C=C/c2ccc3ccc(Cl)cc3n2)c1 [Montelukast] + CCC(C)C1C(=O)NC(=C)C(=O)NC(C(=O)NC(CSCC(C(=O)N1)NC(=O)/C(=C/C)/NC(=O)C(C(C)CC)N)C(=O)NC2C(SCC(NC(=O)CNC(=O)C3CCCN3C2=O)C(=O)NC(CCCCN)C(=O)NC4C(SCC(NC(=O)CNC(=O)C(NC(=O)C(NC(=O)C(NC(=O)CNC4=O)C)CC(C)C)CCSC)C(=O)NC(CC(=O)N)C(=O)NC(CCSC)C(=O)NC(CCCCN)C(=O)NC5C(SCC6C(=O)NC(C(=O)NC(CSC(C(C(=O)N6)NC(=O)C(NC5=O)C)C)C(=O)NC(CO)C(=O)NC(C(C)CC)C(=O)NC(CC7=CN=CN7)C(=O)NC(C(C)C)C(=O)NC(=C)C(=O)NC(CCCCN)C(=O)O)CC8=CN=CN8)C)C)C)CC(C)C [Nisin] | 0.297 |

Source: the supplement of paper PMC10627819
